Here are results for one molecule from paper PMC5048338, “Discovery of 4,6-disubstituted pyrimidines as potent inhibitors of the heat shock factor 1 (HSF1) stress pathway and CDK9” (Medchemcomm, 2016).

For one experiment, the system named is HSF1-stress pathway. As to the kind of experiment: ArrayScan HSP72 protein assay (HSF1-stress pathway inhibition, 17-AAG induced).
The target of another experiment is T1, CDK9/cyclin T1 (Homo sapiens, UniProt P50750).
T1 construct: purchased EMD Millipore screening panel (now Eurofins)
The experiment in a line: EMD Millipore (Eurofins) CDK panel. The class given is biochemical. The procedure: (§1) Therefore 4,6-pyrimidine 3 was submitted to a EMD Millipore CDK panel to assess potency across the selected CDK family members (Table 3). Modest activity was observed against several CDKs; […]. […]. page 4: […]
(§2) mM Mg Acetate and […] (specific activity approx. 500 cpm/pmol, concentration as required). The reaction is initiated by the addition of the MgATP mix. After incubation for 40 minutes at room temperature, the reaction is stopped by the addition of 3% phosphoric acid solution. 10 μL of the reaction is then spotted onto a P30 filtermat and washed three times for 5 minutes in 75 mM phosphoric acid and once in methanol prior to drying and scintillation counting. […]
CDK9/cyclinT1 (h) is incubated with 8 mM MOPS pH 7.0, 0.2 mM EDTA, 100 μM […]
(§3) , 10 mM MgAcetate and […]
(§4) (specific activity approx. 500 cpm/pmol, concentration as required). The reaction is initiated by the addition of the MgATP mix. After incubation for 40 minutes at room temperature, the reaction is stopped by the addition of 3% phosphoric acid solution. 10 μL of the reaction is then spotted onto a P30 filtermat and washed three times for 5 minutes in 75 mM phosphoric acid and once in methanol prior to drying and scintillation counting. […]

Experiment [1] deals with T2, CDK2/cyclinE (Homo sapiens, UniProt P24941). As to the kind of experiment: EMD Millipore (Eurofins) CDK panel. The conditions noted are these: read-out: CDK2/cyclin E IC50; EMD Millipore screening panel, N = 1.
Description: Eurofins CDK panel assay conditions
(§5) CDK1/cyclinB (h) is incubated with 8 mM MOPS pH 7.0, 0.2 mM EDTA, 0.1 mg/mL histone H1, 10 mM MgAcetate and [9-33P]-ATP (specific activity approx. 500 cpm/pmol, concentration as required). The reaction is initiated by the addition of the MgATP mix. After incubation for 40 minutes at room temperature, the reaction is stopped by the addition of 3% phosphoric acid solution. 10 μL of the reaction is then spotted onto a P30 filtermat and washed three times for 5 minutes in 75 mM phosphoric acid and once in methanol prior to drying and scintillation counting.
(§6) CDK2/cyclinE (h) is incubated with 8 mM MOPS pH 7.0, 0.2 mM EDTA, 0.1 mg/mL histone H1, 10
(§7) CDK3/cyclinE (h) is incubated with 8 mM MOPS pH 7.0, 0.2 mM EDTA, 0.1 mg/mL histone H1, 10 mM Mg Acetate and [9-33P]-ATP (specific activity approx. 500 cpm/pmol, concentration as
For a further experiment, the target named is CDK3/cyclin E (Homo sapiens, UniProt Q00526). The experiment in a line: EMD Millipore (Eurofins) CDK panel. The following applies: read-out: CDK3/cyclin E IC50; EMD Millipore screening panel, N = 1.
A further experiment addresses CDK1/cyclin B (Homo sapiens, UniProt P06493). As to the kind of experiment: EMD Millipore (Eurofins) CDK panel. The following applies: read-out: CDK1/cyclin B IC50; EMD Millipore screening panel, N = 1.
Experiment [2] deals with T2, CDK2/cyclinE. The experiment in a line: CDK2 enzyme assay: off-chip mobility shift assay. Format: biochemical. Also on record: purchased Upstate/Millipore. The procedure:
CDK2 enzyme assay: Off-chip Mobility SHIFT Assay
All reagents were purchased from Sigma-Aldrich unless otherwise specified. Inhibition of CDK2/cyclinE activity was quantified using an off-chip incubation, mobility shift assay, which uses a microfluidic chip (Caliper Life Sciences) to measure the conversion of a fluorescent peptide substrate to phosphorylated product. An Off-chip Mobility Shift Chip with 12 sippers (Caliper Life Sciences) was prepared for use according to the manufacturer’s instructions using Coating Reagent #3 (Caliper Life Sciences). The off-chip incubation was carried out in white, 384-well, flat bottom, low volume assay plates (Greiner). 5 µL peptide mix (1.5 µM substrate peptide (fluorescein-QSPKKG-CONH2, Bachem) and 90 µM ATP in kinase base buffer (50 mM HEPES, pH7.5 (Calbiochem), 0.06% CHAPSO)) were added to each well of the prepared compound plates which contained 120 nL compound stock solution per well. The reaction was then initiated by the addition of 6 µL enzyme mix (1.0 nM CDK2/cyclin E (Upstate/Millipore), 1.0 mM DTT and 5.0 mM MgCl2 in kinase base buffer). After incubation for 60 min at room temperature, each reaction was terminated by the addition of 10µL of stop solution containing 100 mM HEPES pH 7.5 (Calbiochem), 0.033% Brij-35, 0.22% Coating Reagent #3 (Caliper Life Sciences), 44 mM EDTA and 5 % DMSO. Reaction products were analysed using a Caliper LabChip LC3000 instrument and peak height was used to calculate percentage conversion of substrate to product.
For compound response testing, a 12 point compound concentration range was used. Compounds were acoustically dosed (Echo 555; Labcyte) into assay-ready plates using 11 half log intervals from 100 μM to […] plus a 12th point at 0.01 μM. Each well was backfilled with the required volume up to 120 nL of 100% DMSO to ensure a final 1% v/v DMSO concentration in the assay. In addition to the compound test wells, each plate carried maximum and minimum controls. Staurosporine at 10 μM was used to inhibit CDK2 activity for the minimum control. As a maximum control, 120 nL pure DMSO was added to the wells. Each plate contained at least 11 randomly distributed maximum and minimum controls. After the addition of compounds to the assay plates, the assay was performed as detailed above. Percentage conversion of substrate to product was used to calculate the effect of each compound on the kinase activity of CDK2/cyclinE. Enzyme inhibition model 3, non-linear curve fit analysis within OriginLab™ software was used to fit dose response curves and estimate the […]
concentration of compound required to reduce the enzyme activity to 50% of the conversion calculated from an average of the maximum controls.
Cell-based ELISA (Cellisa) for HSP72 expression
To follow HSP72 protein expression, a product of HSF1 transcriptional activity, Cellisa was developed. Cells (5-8x10^4cells/ml) were seeded into 96-well plates and incubated at 37 °C for 48 h.
Compounds were then added at a range of concentrations and incubated for 1 h before addition of 17-AAG (250 nM). Cells were then incubated for 18 h. The medium was removed and cells were fixed with fixing solution (4% paraformaldehyde, 0.3% TritonX-100 in PBS) for 30 min at 4 °C. The plates were then washed with 0.1% Tween-20/deionised water before blocking with 5% milk for 30 min at 37 °C. After washing the plates, HSP72 antibody (SPA-810, Enzo Life) was added for 1.5 h at 37 °C.
Following 4 x washes, the plates were incubated with europium-labelled anti-mouse antibody (0.6ug/ml) in Delfia assay buffer (Perkin Elmer) for 1 h at 37 °C. After washing the plates, Delfia enhancement solution was added, shaken for 10 min before reading in the Envision plate reader (Perkin-Elmer) with excitation at 340 nm and emission at 615 nm. The plates were washed again before protein determination using the BCA assay. The europium counts were normalised for the amount of protein in each well. The 50% inhibitory concentration value of the compound was then calculated and presented. […]

A further experiment addresses T3, CDK7/cyclin H/MAT1 (Homo sapiens, UniProt P50613).
T3 construct: purchased EMD Millipore screening panel (now Eurofins)
As to the kind of experiment: EMD Millipore (Eurofins) CDK panel. Format: biochemical. The following applies: EMD Millipore screening panel, N = 1. The procedure: as §1, §2, §3, §4

The next experiment addresses T4, CDK6/cyclin D3 (Homo sapiens, UniProt Q00534).
T4 construct: purchased EMD Millipore screening panel (now Eurofins)
The experiment in a line: EMD Millipore (Eurofins) CDK panel. The conditions noted are these: EMD Millipore screening panel, N = 1. Format: biochemical. The procedure:
as §1, §2, §3, §4

Another experiment has as its target T5, CDK5/p35 (Homo sapiens, UniProt Q00535).
T5 construct: purchased EMD Millipore screening panel (now Eurofins)
The experiment in a line: EMD Millipore (Eurofins) CDK panel. Format: biochemical. The conditions noted are these: EMD Millipore screening panel, N = 1. The procedure: Therefore 4,6-pyrimidine 3 was submitted to a EMD Millipore CDK panel to assess potency across the selected CDK family members (Table 3). Modest activity was observed against several CDKs; […]. […]. page 4:
CDK5/p35 (h) is incubated with 8 mM MOPS pH 7.0, 0.2 mM EDTA, 0.1 mg/mL histone H1, 10 mM Mg Acetate and […] (specific activity approx. 500 cpm/pmol, concentration as required). The reaction is initiated by the addition of the MgATP mix. After incubation for 40 minutes at room temperature, the reaction is stopped by the addition of 3% phosphoric acid solution. 10 μL of the reaction is then spotted onto a P30 filtermat and washed three times for 5 minutes in 75 mM phosphoric acid and once in methanol prior to drying and scintillation counting. […]
as §3, §4

T1 sequence (P50750 whole entry): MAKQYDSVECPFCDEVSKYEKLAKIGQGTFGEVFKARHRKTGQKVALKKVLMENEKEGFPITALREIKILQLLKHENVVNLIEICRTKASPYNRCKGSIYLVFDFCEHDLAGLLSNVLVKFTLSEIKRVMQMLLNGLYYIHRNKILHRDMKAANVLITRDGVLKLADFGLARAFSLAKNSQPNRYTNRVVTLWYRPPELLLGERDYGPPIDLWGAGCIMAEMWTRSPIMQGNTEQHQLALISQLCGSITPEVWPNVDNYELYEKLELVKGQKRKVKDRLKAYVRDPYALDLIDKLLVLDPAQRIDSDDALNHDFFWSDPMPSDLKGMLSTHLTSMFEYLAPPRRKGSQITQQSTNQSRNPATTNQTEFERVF
T1 sequence (O60563 whole entry partner): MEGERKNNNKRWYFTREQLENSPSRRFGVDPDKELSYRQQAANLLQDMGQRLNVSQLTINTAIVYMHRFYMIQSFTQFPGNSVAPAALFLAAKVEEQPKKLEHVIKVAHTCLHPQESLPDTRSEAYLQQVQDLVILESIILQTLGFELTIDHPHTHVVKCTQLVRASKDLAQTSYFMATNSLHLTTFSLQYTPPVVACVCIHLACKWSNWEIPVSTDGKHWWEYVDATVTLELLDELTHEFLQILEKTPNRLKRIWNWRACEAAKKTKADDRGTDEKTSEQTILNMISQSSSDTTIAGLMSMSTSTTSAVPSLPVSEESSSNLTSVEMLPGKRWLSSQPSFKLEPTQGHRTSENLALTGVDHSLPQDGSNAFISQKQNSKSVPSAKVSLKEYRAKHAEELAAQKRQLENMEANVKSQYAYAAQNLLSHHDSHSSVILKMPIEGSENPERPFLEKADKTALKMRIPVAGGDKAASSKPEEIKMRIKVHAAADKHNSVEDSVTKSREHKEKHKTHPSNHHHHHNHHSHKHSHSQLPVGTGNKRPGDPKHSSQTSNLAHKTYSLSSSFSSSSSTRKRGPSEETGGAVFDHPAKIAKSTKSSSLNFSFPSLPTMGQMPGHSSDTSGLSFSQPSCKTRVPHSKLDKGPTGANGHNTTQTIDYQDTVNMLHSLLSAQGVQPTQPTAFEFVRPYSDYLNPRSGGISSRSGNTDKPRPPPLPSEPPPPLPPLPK
T4 sequence (Q00534 whole entry): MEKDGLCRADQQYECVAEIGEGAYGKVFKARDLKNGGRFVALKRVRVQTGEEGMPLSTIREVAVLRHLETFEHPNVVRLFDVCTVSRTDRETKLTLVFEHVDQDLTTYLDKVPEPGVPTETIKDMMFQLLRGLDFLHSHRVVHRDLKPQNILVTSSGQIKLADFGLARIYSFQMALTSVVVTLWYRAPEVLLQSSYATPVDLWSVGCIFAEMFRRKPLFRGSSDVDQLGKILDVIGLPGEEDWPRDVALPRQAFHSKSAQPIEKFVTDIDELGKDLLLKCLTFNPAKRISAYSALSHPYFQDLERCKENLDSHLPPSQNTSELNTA
T4 sequence (P30281 whole entry partner): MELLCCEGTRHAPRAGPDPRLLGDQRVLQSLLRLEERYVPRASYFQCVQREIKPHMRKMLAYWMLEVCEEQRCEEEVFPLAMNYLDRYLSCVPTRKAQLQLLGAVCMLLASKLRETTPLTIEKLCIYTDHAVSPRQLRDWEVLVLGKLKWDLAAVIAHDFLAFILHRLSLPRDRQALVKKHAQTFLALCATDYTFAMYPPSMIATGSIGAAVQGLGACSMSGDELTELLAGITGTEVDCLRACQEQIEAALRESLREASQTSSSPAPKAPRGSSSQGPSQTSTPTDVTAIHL
T3 sequence (P50613 whole entry): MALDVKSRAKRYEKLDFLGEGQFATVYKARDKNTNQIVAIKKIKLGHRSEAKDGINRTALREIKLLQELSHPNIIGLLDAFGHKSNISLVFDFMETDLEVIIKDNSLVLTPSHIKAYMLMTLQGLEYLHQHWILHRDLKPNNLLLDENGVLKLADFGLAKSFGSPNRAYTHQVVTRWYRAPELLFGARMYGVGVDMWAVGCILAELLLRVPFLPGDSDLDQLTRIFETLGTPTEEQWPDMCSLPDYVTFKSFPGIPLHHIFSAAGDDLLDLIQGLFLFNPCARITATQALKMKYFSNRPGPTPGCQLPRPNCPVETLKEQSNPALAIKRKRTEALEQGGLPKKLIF
T3 sequence (P51946 whole entry partner): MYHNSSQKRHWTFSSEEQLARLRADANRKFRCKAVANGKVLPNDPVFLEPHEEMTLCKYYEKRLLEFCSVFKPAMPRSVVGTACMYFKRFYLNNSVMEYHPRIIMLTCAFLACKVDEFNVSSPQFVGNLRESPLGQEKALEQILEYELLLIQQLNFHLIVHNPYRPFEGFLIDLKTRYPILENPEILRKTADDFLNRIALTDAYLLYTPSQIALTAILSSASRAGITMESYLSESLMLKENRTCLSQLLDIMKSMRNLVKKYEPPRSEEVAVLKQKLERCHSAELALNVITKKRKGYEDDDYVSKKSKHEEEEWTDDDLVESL
T3 sequence (P51948 whole entry partner): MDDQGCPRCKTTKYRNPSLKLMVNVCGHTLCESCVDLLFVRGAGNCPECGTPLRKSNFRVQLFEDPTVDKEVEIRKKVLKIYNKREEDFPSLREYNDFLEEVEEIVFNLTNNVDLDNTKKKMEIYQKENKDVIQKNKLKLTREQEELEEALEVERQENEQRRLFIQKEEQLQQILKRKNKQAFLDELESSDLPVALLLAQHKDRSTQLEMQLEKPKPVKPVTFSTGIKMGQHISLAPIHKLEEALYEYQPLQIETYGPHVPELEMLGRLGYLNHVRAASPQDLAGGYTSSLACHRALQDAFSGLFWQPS
CDK1/cyclin B, sequence (P06493 whole entry): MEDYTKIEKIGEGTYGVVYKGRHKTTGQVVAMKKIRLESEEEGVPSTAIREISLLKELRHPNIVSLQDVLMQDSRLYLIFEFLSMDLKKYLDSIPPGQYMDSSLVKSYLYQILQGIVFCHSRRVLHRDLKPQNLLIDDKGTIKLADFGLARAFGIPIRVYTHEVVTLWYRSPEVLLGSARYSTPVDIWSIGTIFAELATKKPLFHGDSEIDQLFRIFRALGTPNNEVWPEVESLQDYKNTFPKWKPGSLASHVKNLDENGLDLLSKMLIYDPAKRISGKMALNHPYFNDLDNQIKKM
CDK1/cyclin B, sequence (P14635 whole entry partner): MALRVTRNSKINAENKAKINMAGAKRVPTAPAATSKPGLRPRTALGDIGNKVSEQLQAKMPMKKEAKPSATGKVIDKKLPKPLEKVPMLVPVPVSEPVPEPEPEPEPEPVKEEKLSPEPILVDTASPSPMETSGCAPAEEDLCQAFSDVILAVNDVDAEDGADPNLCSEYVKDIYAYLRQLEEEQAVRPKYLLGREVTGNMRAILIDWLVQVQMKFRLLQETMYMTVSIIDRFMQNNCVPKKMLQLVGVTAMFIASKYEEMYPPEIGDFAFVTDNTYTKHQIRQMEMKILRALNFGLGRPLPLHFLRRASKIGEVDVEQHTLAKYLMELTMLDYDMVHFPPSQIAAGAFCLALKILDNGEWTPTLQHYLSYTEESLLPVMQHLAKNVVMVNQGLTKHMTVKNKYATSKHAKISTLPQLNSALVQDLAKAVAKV
T5 sequence (Q00535 whole entry): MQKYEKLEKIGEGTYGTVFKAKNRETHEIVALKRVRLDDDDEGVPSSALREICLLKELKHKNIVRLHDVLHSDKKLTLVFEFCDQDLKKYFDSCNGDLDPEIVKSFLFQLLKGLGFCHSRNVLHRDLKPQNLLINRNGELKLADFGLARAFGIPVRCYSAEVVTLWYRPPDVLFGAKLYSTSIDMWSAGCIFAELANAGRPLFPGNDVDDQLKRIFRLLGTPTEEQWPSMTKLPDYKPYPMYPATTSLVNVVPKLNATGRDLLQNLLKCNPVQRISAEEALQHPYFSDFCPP
T5 sequence (Q15078 whole entry partner): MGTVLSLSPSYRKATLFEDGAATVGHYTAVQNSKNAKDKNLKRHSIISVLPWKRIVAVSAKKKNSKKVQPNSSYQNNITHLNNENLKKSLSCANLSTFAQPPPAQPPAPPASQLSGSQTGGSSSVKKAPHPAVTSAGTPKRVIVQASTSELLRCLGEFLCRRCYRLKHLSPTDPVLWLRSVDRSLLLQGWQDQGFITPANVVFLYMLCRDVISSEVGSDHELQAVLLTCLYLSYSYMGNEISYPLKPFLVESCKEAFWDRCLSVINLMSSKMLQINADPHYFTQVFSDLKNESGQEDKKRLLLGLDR
Description for CDK1/cyclin B: Eurofins CDK panel assay conditions
as §5, §6, §7
Description for CDK3/cyclin E: Eurofins CDK panel assay conditions
as §5, §6, §7
Description for HSF1-stress pathway: To discover inhibitors of the HSF1-stress pathway, we employed an automated cellular imaging and analysis method (ArrayScan™) that quantifies the ability of a compound to suppress the expression of the HSF1-mediated inducible HSP70 isoform, HSP72.
U2OS cells (1500 per well) were plated in 40 μL of DMEM media (containing 10% fetal calf serum and 2 mM Glutamax T-1) in costar 384-well plates and left overnight at 37 °C and 5% CO2 to adhere.
treatment with compound, all wells except min wells were dosed with 17AAG diluted in DMSO (10
°C and 5% CO2. The following day the cells were fixed by addition of 20 μL/well of 12% formaldehyde with 1:1700 Hoechst in PBS for 10 min at room temperature. The fixative was decanted and the wells washed once with 50 μL of phosphate buffer saline (PBS).The PBS was subsequently aspirated, and the cells were permeabilized by addition of 20 μL/well of PBS 0.3% Triton X-100 for 20 min at room temperature. The wells were then washed with 80 μL of PBS prior to the addition of 20 μL of combined primary and secondary antibodies diluted in PBS (1:10 000 mouse anti-Hsp72
11001 molecular probes), for 2 h at room temperature. The wells were then washed with 50 μL of PBS. Finally, 50 μL of PBS was added to each well, and the plates were sealed ready to analyze.
Analysis was carried out using a Cellomics Arrayscan VTI instrument and the Cellomics Arrayscan Compartmental Analysis algorithm to measure cellular levels of HSP72.
100 μM to 0.1 μM plus a 12th point at 0.01 μM. Each well was backfilled with the required volume up to 120 nL of 100% DMSO to ensure a final 1% v/v DMSO concentration in the assay. In addition to the compound test wells, each plate carried maximum and minimum controls. Staurosporine at 10 μM was used to inhibit CDK2 activity for the minimum control. As a maximum control, 120 nL pure DMSO was added to the wells. Each plate contained at least 11 randomly distributed maximum and minimum controls. After the addition of compounds to the assay plates, the assay was performed as detailed above. Percentage conversion of substrate to product was used to calculate the effect of each compound on the kinase activity of CDK2/cyclinE. Enzyme inhibition model 3, non-linear curve fit analysis within OriginLab™ software was used to fit dose response curves and estimate the

Take `CN(C)CCOc1ccc(Nc2cc(-n3cnc4ccccc43)ncn2)nc1` [Compound 3]: the IC50 was 80 nM with HSF1-stress pathway (Homo sapiens, U2OS, read-out: HSF1 IC50); 14 nM against CDK9/cyclin T1 (EMD Millipore screening panel, N = 1); 2800 nM on CDK2/cyclinE [1]; 3.5 µM on CDK3/cyclin E; 1800 nM at CDK1/cyclin B; 580 nM at CDK2/cyclinE [2] (biochemical, CDK2/cyclinE, average of two determinations). Further, the IC50 against CDK7/cyclin H/MAT1 came out at 1100 nM; on CDK6/cyclin D3, 1300 nM; against CDK5/p35, 610 nM. Also, the “fold more potent in the HSF1-stress pathway assay compared with phenyl compound 2” value with HSF1-stress pathway (relative to compound 2) is “approximately 15 fold”. Also, at CDK9/cyclin T1 (ratio between CDK2/7/9, CDK9 = 1, EMD Millipore Screening Panel), the “ratio of activity CDK9/CyclinT1” value came to 1. Also, the “fold more active against CDK2 compared with phenyl compound 2” value at CDK2/cyclinE [2] (relative to compound 2) turned out to be 35 fold.
